ChEMBL document CHEMBL5291721, “A preclinical secondary pharmacology resource illuminates target-adverse drug reaction associations of marketed drugs” (Nat Commun, 2023)

Legend:
Cannabinoid receptor 1 = Cannabinoid receptor 1 (Homo sapiens, UniProt P21554)
Thromboxane A2 receptor [1] = target: T1, Thromboxane A2 receptor (Homo sapiens, UniProt P21731)
T1 sequence (P21731 whole entry): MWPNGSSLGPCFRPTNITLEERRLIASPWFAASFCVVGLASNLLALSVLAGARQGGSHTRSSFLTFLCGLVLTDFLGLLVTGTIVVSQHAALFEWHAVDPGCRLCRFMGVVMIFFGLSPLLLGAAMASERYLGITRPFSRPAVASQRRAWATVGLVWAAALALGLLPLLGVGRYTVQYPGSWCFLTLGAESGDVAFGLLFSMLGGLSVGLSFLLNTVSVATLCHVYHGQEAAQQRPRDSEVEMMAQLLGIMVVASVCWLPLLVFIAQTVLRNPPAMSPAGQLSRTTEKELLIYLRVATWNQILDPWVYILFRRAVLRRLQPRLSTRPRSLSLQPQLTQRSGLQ

Vasopressin V2 receptor = Vasopressin V2 receptor (Homo sapiens, UniProt P30518)
[2] = target: Voltage-dependent L-type calcium channel subunit alpha-1C (Rattus norvegicus, UniProt P22002); type: functional
[3] = target: 5-hydroxytryptamine receptor 2A (Homo sapiens, UniProt P28223); type: functional, cell-based
[4] = target: T2, Muscarinic acetylcholine receptor M1 (Homo sapiens, UniProt P11229); type: functional
T2 sequence (P11229 whole entry): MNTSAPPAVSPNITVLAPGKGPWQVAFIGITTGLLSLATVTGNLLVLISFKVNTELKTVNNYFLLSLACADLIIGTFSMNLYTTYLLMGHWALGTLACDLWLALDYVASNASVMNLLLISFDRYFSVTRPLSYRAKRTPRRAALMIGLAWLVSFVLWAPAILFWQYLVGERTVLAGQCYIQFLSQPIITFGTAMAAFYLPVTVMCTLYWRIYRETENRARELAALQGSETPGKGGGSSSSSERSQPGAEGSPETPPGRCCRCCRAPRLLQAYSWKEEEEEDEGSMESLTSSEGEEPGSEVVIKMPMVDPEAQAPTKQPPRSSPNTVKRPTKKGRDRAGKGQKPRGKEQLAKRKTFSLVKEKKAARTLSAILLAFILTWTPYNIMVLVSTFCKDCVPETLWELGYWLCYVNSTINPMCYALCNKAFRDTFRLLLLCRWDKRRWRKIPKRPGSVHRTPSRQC

[5] = target: 5-hydroxytryptamine receptor 2B (Homo sapiens, UniProt P41595); type: functional, cell-based
[6] = target: Gamma-aminobutyric acid receptor subunit alpha-1 (Rattus norvegicus, UniProt P62813)
[7] = target: T3, Alpha-1A adrenergic receptor (Homo sapiens, UniProt P35348); type: functional, cell-based
T3 sequence (P35348 whole entry): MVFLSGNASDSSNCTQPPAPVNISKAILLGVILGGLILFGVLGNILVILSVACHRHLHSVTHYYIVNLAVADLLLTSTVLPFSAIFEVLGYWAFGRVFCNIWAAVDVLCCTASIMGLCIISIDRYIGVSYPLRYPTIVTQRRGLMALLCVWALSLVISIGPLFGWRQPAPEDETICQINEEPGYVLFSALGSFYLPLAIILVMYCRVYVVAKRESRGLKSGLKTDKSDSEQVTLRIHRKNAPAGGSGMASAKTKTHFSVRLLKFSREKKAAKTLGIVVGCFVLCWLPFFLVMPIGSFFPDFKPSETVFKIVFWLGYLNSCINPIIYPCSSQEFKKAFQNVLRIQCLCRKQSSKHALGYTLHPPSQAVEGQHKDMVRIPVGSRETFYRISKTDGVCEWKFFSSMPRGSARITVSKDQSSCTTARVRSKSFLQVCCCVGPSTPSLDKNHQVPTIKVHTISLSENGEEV

Histamine H3 receptor [8] = target: T4, Histamine H3 receptor (Homo sapiens, UniProt Q9Y5N1)
[9] = target: T5, Alpha-2A adrenergic receptor (Homo sapiens, UniProt P08913)
T5 sequence (P08913 whole entry): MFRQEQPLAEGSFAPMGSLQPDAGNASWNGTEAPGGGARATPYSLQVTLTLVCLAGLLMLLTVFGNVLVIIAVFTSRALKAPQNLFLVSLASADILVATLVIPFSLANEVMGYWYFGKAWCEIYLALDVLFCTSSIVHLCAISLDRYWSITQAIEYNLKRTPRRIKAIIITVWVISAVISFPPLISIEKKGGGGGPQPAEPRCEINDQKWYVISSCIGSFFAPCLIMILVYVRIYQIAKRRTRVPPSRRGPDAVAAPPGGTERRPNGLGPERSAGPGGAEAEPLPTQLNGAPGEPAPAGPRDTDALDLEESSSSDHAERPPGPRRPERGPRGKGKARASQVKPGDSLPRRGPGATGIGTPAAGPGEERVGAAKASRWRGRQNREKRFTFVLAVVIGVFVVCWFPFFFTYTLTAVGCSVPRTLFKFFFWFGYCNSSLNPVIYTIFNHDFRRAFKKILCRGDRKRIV

[10] = target: 3',5'-cyclic-AMP phosphodiesterase 4A (Homo sapiens, UniProt P27815); type: functional
[11] = target: T3, Alpha-1A adrenergic receptor; type: functional, cell-based; remark: listed apart in the source
[12] = target: T3, Alpha-1A adrenergic receptor; type: functional, cell-based; remark: listed apart in the source
Thromboxane A2 receptor [13] = target: T1, Thromboxane A2 receptor; type: functional, cell-based
Thromboxane A2 receptor [14] = target: T1, Thromboxane A2 receptor; type: functional, cell-based; remark: listed apart in the source
D(1A) dopamine receptor = D(1A) dopamine receptor (Homo sapiens, UniProt P21728)
Prothrombin = Prothrombin (Homo sapiens, UniProt P00734); type: functional
Mu-type opioid receptor = Mu-type opioid receptor (Homo sapiens, UniProt P35372)
Histamine H3 receptor [15] = target: T4, Histamine H3 receptor; remark: listed apart in the source
Further: assay procedure not described here.

T4 sequence (Q9Y5N1 whole entry): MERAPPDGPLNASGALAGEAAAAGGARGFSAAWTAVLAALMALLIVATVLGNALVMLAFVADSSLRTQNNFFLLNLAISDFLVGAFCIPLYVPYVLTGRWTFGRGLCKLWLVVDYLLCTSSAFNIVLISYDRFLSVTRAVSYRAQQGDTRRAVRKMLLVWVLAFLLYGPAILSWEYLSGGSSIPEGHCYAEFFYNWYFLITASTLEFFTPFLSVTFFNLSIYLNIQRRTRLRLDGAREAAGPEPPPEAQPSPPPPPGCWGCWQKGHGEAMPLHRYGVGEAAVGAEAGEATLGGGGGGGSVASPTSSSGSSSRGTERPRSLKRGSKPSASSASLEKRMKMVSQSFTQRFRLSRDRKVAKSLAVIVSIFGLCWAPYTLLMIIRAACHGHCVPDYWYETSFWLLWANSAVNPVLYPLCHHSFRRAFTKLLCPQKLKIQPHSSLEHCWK
Sequence of Mu-type opioid receptor (P35372 whole entry): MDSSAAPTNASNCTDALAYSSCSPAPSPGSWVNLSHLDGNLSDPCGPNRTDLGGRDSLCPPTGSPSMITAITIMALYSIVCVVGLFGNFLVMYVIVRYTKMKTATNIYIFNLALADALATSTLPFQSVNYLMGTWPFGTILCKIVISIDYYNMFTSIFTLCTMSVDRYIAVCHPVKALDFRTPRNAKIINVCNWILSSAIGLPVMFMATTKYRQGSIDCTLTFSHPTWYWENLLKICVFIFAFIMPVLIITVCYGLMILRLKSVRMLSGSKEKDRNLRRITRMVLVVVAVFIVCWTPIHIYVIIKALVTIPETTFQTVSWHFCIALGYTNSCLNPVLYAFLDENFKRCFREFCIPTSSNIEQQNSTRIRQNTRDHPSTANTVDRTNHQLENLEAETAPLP
Sequence of Gamma-aminobutyric acid receptor subunit alpha-1 (P62813 whole entry): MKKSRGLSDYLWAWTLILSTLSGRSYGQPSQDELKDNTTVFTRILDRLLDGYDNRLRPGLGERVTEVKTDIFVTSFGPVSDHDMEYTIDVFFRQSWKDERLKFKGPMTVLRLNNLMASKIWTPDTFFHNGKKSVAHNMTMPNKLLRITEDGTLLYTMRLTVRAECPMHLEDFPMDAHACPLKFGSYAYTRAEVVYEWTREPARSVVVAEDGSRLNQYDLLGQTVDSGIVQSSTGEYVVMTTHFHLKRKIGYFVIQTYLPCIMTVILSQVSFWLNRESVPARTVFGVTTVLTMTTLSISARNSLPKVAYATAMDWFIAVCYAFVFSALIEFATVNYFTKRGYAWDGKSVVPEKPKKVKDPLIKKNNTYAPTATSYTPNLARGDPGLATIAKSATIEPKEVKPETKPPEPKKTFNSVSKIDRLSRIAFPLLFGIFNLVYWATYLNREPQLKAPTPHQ
Sequence of Voltage-dependent L-type calcium channel subunit alpha-1C (P22002 whole entry): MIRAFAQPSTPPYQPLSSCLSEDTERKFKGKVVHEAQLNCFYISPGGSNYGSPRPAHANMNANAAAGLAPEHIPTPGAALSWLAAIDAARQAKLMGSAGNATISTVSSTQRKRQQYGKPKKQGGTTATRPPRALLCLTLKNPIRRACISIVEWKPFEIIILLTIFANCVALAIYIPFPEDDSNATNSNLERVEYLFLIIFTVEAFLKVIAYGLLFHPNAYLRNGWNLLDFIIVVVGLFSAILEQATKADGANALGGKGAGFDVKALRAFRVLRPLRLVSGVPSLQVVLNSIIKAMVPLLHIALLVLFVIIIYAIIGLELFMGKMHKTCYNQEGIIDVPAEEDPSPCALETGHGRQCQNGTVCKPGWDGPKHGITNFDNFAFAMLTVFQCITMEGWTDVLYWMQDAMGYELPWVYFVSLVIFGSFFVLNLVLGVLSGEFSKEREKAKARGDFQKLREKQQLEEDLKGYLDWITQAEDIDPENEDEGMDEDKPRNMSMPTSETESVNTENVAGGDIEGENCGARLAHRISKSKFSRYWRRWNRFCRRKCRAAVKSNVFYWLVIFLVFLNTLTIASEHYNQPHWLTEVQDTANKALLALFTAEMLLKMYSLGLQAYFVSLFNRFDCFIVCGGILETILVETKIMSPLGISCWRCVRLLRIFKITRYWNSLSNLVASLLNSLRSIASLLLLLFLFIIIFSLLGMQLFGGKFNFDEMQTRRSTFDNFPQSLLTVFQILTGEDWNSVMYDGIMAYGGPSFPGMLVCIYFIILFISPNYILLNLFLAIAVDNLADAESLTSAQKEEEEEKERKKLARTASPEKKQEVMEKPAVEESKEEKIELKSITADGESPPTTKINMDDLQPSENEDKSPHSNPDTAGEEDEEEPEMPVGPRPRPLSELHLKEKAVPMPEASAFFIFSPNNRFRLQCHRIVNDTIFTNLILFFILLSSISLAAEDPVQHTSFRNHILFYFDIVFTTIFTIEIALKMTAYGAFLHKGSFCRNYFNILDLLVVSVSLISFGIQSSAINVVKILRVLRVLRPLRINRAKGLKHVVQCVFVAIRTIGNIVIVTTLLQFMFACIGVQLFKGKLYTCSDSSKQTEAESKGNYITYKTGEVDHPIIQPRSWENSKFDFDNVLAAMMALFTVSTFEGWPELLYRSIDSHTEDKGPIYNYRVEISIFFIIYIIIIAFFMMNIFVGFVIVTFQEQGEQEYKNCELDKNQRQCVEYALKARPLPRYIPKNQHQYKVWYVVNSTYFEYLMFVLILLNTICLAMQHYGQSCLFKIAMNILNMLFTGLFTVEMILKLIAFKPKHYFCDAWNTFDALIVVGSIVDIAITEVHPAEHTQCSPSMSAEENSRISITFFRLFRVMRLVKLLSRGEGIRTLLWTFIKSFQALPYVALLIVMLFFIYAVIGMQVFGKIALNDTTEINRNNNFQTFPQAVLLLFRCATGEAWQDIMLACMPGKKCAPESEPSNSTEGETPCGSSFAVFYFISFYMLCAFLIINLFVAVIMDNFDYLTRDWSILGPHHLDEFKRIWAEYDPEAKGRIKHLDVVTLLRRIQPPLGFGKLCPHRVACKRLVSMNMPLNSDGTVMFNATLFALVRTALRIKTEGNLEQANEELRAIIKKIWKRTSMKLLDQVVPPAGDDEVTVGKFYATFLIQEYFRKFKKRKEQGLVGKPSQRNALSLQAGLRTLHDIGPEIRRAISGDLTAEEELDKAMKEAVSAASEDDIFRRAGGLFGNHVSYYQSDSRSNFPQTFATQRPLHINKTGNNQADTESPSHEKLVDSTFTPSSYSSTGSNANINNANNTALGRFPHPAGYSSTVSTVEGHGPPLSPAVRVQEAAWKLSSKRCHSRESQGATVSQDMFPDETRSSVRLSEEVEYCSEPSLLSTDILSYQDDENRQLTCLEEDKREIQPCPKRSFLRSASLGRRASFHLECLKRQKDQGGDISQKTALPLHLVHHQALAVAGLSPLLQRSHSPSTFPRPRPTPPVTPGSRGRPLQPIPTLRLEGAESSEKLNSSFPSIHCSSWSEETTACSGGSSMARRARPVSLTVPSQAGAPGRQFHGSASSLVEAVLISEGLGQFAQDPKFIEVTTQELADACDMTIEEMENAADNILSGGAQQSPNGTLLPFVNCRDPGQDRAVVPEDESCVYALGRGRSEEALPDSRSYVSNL
Sequence of D(1A) dopamine receptor (P21728 whole entry): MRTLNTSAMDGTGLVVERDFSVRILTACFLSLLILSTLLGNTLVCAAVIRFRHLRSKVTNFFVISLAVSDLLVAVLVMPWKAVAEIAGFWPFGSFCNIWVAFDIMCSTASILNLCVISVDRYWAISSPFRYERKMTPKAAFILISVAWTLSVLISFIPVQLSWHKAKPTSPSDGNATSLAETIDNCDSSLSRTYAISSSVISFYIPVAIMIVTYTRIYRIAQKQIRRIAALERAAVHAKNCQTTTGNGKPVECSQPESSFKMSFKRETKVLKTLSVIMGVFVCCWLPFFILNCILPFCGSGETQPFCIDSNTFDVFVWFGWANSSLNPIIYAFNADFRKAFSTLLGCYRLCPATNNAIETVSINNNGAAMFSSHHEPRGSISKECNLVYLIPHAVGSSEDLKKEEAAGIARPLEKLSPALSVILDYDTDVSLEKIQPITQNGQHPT
Sequence of Cannabinoid receptor 1 (P21554 whole entry): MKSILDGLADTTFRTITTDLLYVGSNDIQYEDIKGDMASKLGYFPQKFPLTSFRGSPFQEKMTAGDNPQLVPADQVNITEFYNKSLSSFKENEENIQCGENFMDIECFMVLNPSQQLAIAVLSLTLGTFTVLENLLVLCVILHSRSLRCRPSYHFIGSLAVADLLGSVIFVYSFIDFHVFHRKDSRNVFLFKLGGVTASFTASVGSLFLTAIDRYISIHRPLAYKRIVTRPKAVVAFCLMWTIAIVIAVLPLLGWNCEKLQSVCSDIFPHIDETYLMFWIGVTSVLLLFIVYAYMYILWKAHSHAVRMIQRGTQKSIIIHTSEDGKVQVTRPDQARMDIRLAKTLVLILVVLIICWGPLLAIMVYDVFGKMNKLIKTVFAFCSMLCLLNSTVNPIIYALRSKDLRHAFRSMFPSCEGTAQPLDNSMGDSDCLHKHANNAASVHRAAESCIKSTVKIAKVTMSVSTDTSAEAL
Sequence of Vasopressin V2 receptor (P30518 whole entry): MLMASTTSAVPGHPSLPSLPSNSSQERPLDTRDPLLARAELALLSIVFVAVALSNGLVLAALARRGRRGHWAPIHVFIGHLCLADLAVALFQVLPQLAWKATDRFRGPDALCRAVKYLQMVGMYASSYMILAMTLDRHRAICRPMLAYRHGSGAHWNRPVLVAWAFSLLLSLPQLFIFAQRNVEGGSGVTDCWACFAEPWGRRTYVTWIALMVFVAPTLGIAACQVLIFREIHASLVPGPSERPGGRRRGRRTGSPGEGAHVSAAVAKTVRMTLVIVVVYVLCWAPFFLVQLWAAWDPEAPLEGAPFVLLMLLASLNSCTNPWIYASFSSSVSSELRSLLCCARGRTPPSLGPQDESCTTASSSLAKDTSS

| SMILES | AC50 (Cannabinoid receptor 1) [µM] | AC50 (Thromboxane A2 receptor [1]) [µM] | AC50 (Vasopressin V2 receptor) [µM] | AC50 [2] [µM] | AC50 [3] [µM] | AC50 [4] [µM] | AC50 [5] [µM] | AC50 [6] [µM] | AC50 [7] [µM] | AC50 (Histamine H3 receptor [8]) [µM] | AC50 [9] [µM] | AC50 [10] [µM] | AC50 [11] [µM] | AC50 [12] [µM] | AC50 (Thromboxane A2 receptor [13]) [µM] | AC50 (Thromboxane A2 receptor [14]) [µM] | AC50 (D(1A) dopamine receptor) [µM] | AC50 (Prothrombin) [µM] | AC50 (Mu-type opioid receptor) [µM] | AC50 (Histamine H3 receptor [15]) [µM] |
| --- | --- | --- | --- | --- | --- | --- | --- | --- | --- | --- | --- | --- | --- | --- | --- | --- | --- | --- | --- | --- |
| O=C1Nc2ccc(Cl)cc2[C@@](C#CC2CC2)(C(F)(F)F)O1 [EFAVIRENZ] | 20.7 | > 30 | > 30 | 18.8 | > 30 | > 30 | > 10 | > 10 | > 30 | > 30 |  |  |  |  |  |  |  |  |  |  |
| CO[C@H]1C[C@@H]2CC[C@@H](C)[C@@](O)(O2)C(=O)C(=O)N2CCCC[C@H]2C(=O)O[C@H]([C@H](C)C[C@@H]2CC[C@@H](O)[C@H](OC)C2)CC(=O)[C@H](C)/C=C(\C)[C@@H](O)[C@@H](OC)C(=O)[C@H](C)C[C@H](C)/C=C/C=C/C=C/1C [SIROLIMUS] | > 10 | > 30 | > 30 | > 10 |  |  | > 10 | > 10 | > 30 | > 10 | > 30 | > 30 | > 30 | > 30 | > 30 | > 30 | > 30 | > 30 | > 30 | > 30 |
| Cc1cccc(Nc2ccccc2C(=O)O)c1C [MEFENAMIC ACID] | > 10 | > 10 | > 10 | > 10 |  |  | > 10 | > 10 |  | > 10 | > 30 | > 30 | > 30 | > 30 | > 30 | > 30 | > 30 | > 30 | > 30 | > 30 |
| Cc1cn([C@H]2C=C[C@@H](CO)O2)c(=O)[nH]c1=O [STAVUDINE] | > 10 | > 30 | > 30 | > 10 |  |  | > 10 | > 10 | > 30 | > 30 | > 30 | > 30 | > 30 | > 30 | > 30 | > 30 | > 30 | > 30 | > 30 | > 30 |
| Clc1ccc2nsnc2c1NC1=NCCN1 [TIZANIDINE] | > 10 | > 30 | > 30 | > 10 |  | > 10 | > 30 | > 10 | 0.0098 | > 10 |  |  |  |  |  |  |  |  |  |  |

Further lines, with some results ahead:

| AC50 (Cannabinoid receptor 1) [µM] | AC50 (Thromboxane A2 receptor [1]) [µM] | AC50 (Vasopressin V2 receptor) [µM] | AC50 [2] [µM] | AC50 [3] [µM] | AC50 [4] [µM] | AC50 [5] [µM] | AC50 [6] [µM] | AC50 [7] [µM] | AC50 (Histamine H3 receptor [8]) [µM] | SMILES | AC50 [9] [µM] | AC50 [10] [µM] | AC50 [11] [µM] | AC50 [12] [µM] | AC50 (Thromboxane A2 receptor [13]) [µM] | AC50 (Thromboxane A2 receptor [14]) [µM] | AC50 (D(1A) dopamine receptor) [µM] | AC50 (Prothrombin) [µM] | AC50 (Mu-type opioid receptor) [µM] | AC50 (Histamine H3 receptor [15]) [µM] |
| --- | --- | --- | --- | --- | --- | --- | --- | --- | --- | --- | --- | --- | --- | --- | --- | --- | --- | --- | --- | --- |
| > 30 | > 30 | > 30 | > 30 |  |  | > 30 | > 30 | > 30 | > 30 | CCC(C)n1ncn(-c2ccc(N3CCN(c4ccc(OCC5COC(Cn6cncn6)(c6ccc(Cl)cc6Cl)O5)cc4)CC3)cc2)c1=O (stereo not drawn) [ITRACONAZOLE] |  |  |  |  |  |  |  |  |  |  |
| > 10 | > 10 | > 30 | > 10 |  |  | > 10 | > 10 | > 30 | > 10 | Cc1ccc(-c2cc(C(F)(F)F)nn2-c2ccc(S(N)(=O)=O)cc2)cc1 [CELECOXIB] |  |  |  |  |  |  |  |  |  |  |
